Experimental data published in US20220323443A1, “COMBINATION THERAPY FOR CANCER TREATMENT” (TAKEDA PHARMACEUTICAL COMPANY LIMITED, priority 2019, published 2022).

What was measured:
[1] = tested on: SW620 cancer cells; assay: In vitro combination study with Compound 1, Cell Titer-Glo (ATP) cell viability, 72 h; format: cell-based; conditions: Table 5 drug combined with Compound 1; 72 h;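 also: Ten-by-ten dose matrices of both drugs in 384-well plates, luminescent ATP read-out, synergy evaluated against single-agent and DMSO vehicle controls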
Procedure: (§10) Each combination pair was evaluated in an individual 384-well plate which contained variable doses of both compounds as single agents, as well as two, ten-by-ten matrices (in duplicate) that contained mixtures of the two test compounds. In brief, compounds were added to the cell test plates 16 hours after cell plating and then assessed for viability 72 hours later. Continuous cultures of tumor cells were maintained under standard cell culturing conditions (i.e. in a humidified chamber set at 37° C., containing atmosphere 5% carbon dioxide). […] Seventy-two hours after compound addition, ATP levels were measured to assess cell viability. Plating densities were chosen to ensure optimal linear growth over the 72 hour period.
(§11) Compound dilution and compound delivery to the assay plates were done on HighRes Robotic System (HighRes Biosolutions, Woburn, Mass., USA) with Echo™ Liquid Handler (Labcyte, Sunnyvale, Calif., USA). […] Next, these were used for compound transfer into cell assay plates. All wells were back-filled to give a constant percentage of DMSO.
(§12) The final DMSO concentration was held constant in all wells across the plate and was maintained at less than 0.5%. […] Cells treated with vehicle (DMSO) in two rows, or single compound serial dilutions in one plate columns/row served as the untreated control and single compound controls, respectively.
(§13) Compound activity in A549, COLO205, H460, HCT116, SW48, SW620 cancer cell lines was assessed using Cell Titer-Glo® (Promega [Madison, Wis., USA]). After 72 hours incubation, the plates were treated as per package insert protocol for the Promega Luminescence ATP Detection Systems. Briefly, 25 μL of cell lysis/substrate solution (provided in kit form) was added to each well and the plate was incubated at room temperature for 10 minutes. Luminescence was measured using a PHERAstar multi-label counter (BMG Labtech [Ortenberg, Germany]) or LEADseeker (GE Healthcare Life Sciences [Piscataway, N.J., USA]).
(§14) Numerical luminescence values were analyzed to generate EC50 curves and evaluate synergy. Raw Data reader files were uploaded along with automation workfiles that defined the plate and well contents. Percent activities were calculated for each well versus plate controls.
(§15) Each plate representing a single drug combination was analyzed separately. First, the viability measurements were normalized by scaling the data so that the median of the negative controls was 0 and the median of the positive controls was 100.
(§16) For the combination analysis, a response surface model was used to describe the relationship between the normalized viability and the drug concentrations. The data were fit to the model by minimizing the residual sum of squares. Based on the fitted response surface, plots of constant viability, called isobolograms, were produced.
(§17) The Combination Index and Nonlinear Blending were used as measures of drug synergy. To calculate Combination Index the 50% isobologram (which is the dose contour that has 50% viability) was used. […] A standard procedure was created to produce a call in order to characterize the viability effects for each combination (synergy, additivity, subadditivity, or antagonism). If the Combination Index existed then these measures were used to make the call.

[2] = tested on: COLO205 cancer cells; assay: as above; format: cell-based, human; conditions: Table 5 drug combined with Compound 1; 72 h;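 also: Ten-by-ten dose matrices of both agents in duplicate plus single-agent dilutions, luminescent ATP read-out, percent activity per well relative to DMSO vehicle wells, synergy call from these matrices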
Procedure: as §10, §11, §12, §13, §14, §15, §16, §17

[3] = tested on: HCT116 cancer cells; assay: as above; format: cell-based; conditions: Table 5 drug combined with Compound 1; 72 h;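 also: combination call from 10×10 dose matrices in duplicate, graded by synergy, with percent activity per well relative to DMSO vehicle controls on the same plate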
Procedure: as §10, §11, §12, §13, §14, §15, §16, §17

[4] = tested on: DU-145 (Prostate); assay: In vivo combination study, Cell Derived Xenograft; design: species or system mouse; conditions: DU-145 (165 mm^3); Compound 1 60 mg/kg once daily Day 1-21; drug 10 mg/kg intravenously once weekly Days 1,8,15
Procedure: (§1) To investigate in vivo antitumor activity of Compound 1 in combination with other agents, tests using Cell Derived Xenograft (CDX), Patient Derived Xenograft (PDX) and Syngeneic mouse tumor isograft model were conducted. Cells or Patient Derived Tumors were inoculated by one method of the following two methods (Method A and B) as shown Table 7.
Method A; Cells were maintained in either immune deficient nude mice or immune competent mice by subcutaneous inoculation of tumor cells at various concentrations into respected mice. Method B: Patient Derived Tumor s were maintained in nude mice by subcutaneous inoculation of tumor pieces (approx. 2×2×2 mm) into nude mice. […]
Tumor size was measured by caliper and tumor volume was estimated using the equation V=(LW^2)/2, where L and W are tumor length and width, respectively and reported in cubic millimeters. […]
For synergy analyses, the observed differences in the log tumor values were used to calculate AUC values for each animal. […] The AUC for the control, or vehicle, group was calculated using the predicted values from the pairwise models described above. […]
where Ak and Bk are the k^th animal in the individual treatment groups and ABk is the k^th animal in combination treatment group. […] The standard error of the synergy score was calculated as the square root of the sum of squared standard errors across groups A, B, and AB. […]

[5] = tested on: PHTXM-79Es human primary esophagus cancer xenografts; assay: In vivo combination study, Patient Derived Xenograft; design: species or system mouse; key to Result (combination with Compound 1, tumor growth): synergistic if the synergy score was less than 0; additive if the synergy score wasn't statistically different from 0; If the synergy score was greater than zero, but the mean AUC for the combination was lower than the lowest mean AUC among the two single agent treatments, then the combination was sub-additive; If the synergy score was greater than zero, and the mean AUC for the combination was greater than the mean AUC for at least one of the single agent treatments, then the combination was antagonistic; conditions: for antitumor activity: combined with Compound 1, PHTXM-79Es human primary esophagus cancer xenografts
Procedure: as §1
(§2) Method A; Cells were maintained in either immune deficient nude mice or immune competent mice by subcutaneous inoculation of tumor cells at various concentrations into respected mice. Method B: Patient Derived Tumor s were maintained in nude mice by subcutaneous inoculation of tumor pieces (approx. 2×2×2 mm) into nude mice. Mice with tumor size of approximately 50 mm^3 (e.g., 40-75 mm^3) for syngeneic mouse studies or 200 mm^3 (e.g., 110-270 mm^3) for xenograft studies were randomly assigned to dose groups on the day (Day 0) before start date of dosing.
(§3) Compound 1 (crystalline form I) was suspended in 0.5 w/v % methylcellulose and administered orally to mice. Antibodies which administered in the experiment were described in Table 8.
(§4) Tumor size was measured by caliper and tumor volume was estimated using the equation V=(LW^2)/2, where L and W are tumor length and width, respectively and reported in cubic millimeters.
(§5) These values were compared across treatment groups to assess whether the differences in the trends over time were statistically significant. To compare pairs of treatment groups, the following mixed-effects linear regression model was fit to the data using the maximum likelihood method:
(§6) For synergy analyses, the observed differences in the log tumor values were used to calculate AUC values for each animal. In instances when an animal in a treatment group was removed from the study, the last observed tumor value was carried forward through all subsequent time points. The AUC for the control, or vehicle, group was calculated using the predicted values from the pairwise models described above. We defined a measure of synergy as follows:
(§7) where Ak and Bk are the k^th animal in the individual treatment groups and ABk is the k^th animal in combination treatment group. AUCcd is the model-predicted AUC for the control group and was treated as a constant with no variability. The standard error of the synergy score was calculated as the square root of the sum of squared standard errors across groups A, B, and AB. The degrees of freedom were estimated using the Welch-Satterthwaite equation. A hypothesis test was performed to determine if the synergy score differed from 0. P values were calculated by dividing the synergy score by its standard error and tested against a t-distribution (two-tailed) with the above-calculated degrees of freedom.
(§8) The effect was classified into four different categories. It was considered synergistic if the synergy score was less than 0 and additive if the synergy score wasn't statistically different from 0. If the synergy score was greater than zero, but the mean AUC for the combination was lower than the lowest mean AUC among the two single agent treatments, then the combination was sub-additive. If the synergy score was greater than zero, and the mean AUC for the combination was greater than the mean AUC for at least one of the single agent treatments, then the combination was antagonistic.

[6] = tested on: PHTXM-35Es human primary esophagus cancer xenografts; assay: as above; design: species or system mouse
Procedure: as §1, §2, §3, §4, §5, §6, §7, §8

[7] = tested on: PHTXM-90Es (Esophagus); assay: as above; design: species or system mouse
Procedure: as §1, §2, §3, §4, §5, §6, §7, §8

[8] = tested on: A549 cancer cells; assay: In vitro combination study with Compound 1, Cell Titer-Glo (ATP) cell viability, 72 h; format: cell-based; conditions: Table 5 drug combined with Compound 1; 72 h;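 also: Ten-by-ten dose matrices of the two agents in duplicate, compounds added 16 h post-plating, activity relative to DMSO vehicle wells, call reflects synergy evaluation from luminescence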
[9] = tested on: H460 cancer cells; assay: as above; format: cell-based; conditions: Table 5 drug combined with Compound 1; 72 h;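 also: Ten-by-ten dose matrices of both drugs alongside single-agent dilutions, luminescence read 72 hours after compound addition, percent activity per well versus vehicle (DMSO) plate controls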
Procedure: as §10, §11, §12, §13, §14, §15, §16, §17

[10] = tested on: pancreatic cancer (MIA-PACA-2) cell line; assay: In vitro combination study for selected compounds, additional cell lines; format: cell-based; conditions: drug combined with Compound 1
Procedure: (§9) In vitro anti-proliferative effects of selected compounds were tested in additional cell lines, including ovarian cancer (SKOV3) and pancreatic cancer (MIA-PACA-2) cell lines.

[11] = tested on: H-1650 (Lung); assay: as above; format: cell-based; conditions: drug combined with Compound 1
Procedure: as §9

[12] = tested on: CALU6 (Lung); assay: as above; format: cell-based; conditions: drug combined with Compound 1
Procedure: as §9

[13] = tested on: ovarian cancer (SKOV3) cell line; assay: as above; format: cell-based; conditions: drug combined with Compound 1
Procedure: as §9

[14] = tested on: PHTX-09C (Colorectal); assay: In vivo combination study, Patient Derived Xenograft; design: species or system mouse; conditions: PHTX-09C (155 mm^3)
[15] = tested on: PHTX-11C; assay: In vivo combination study, xenograft; design: species or system mouse; conditions: PHTX-11C (270 mm^3)
[16] = Compound 1 40 mg/kg once daily Day 1-21, drug 15 mg/kg intravenously Days 1-3, 8-10, 15-17
[17] = Compound 1 40 mg/kg once daily Day 1-21, drug 25 mg/kg intravenously Days 1-3, 8-10, 15-17
[18] = Compound 1 60 mg/kg once daily Day 1-21, drug 15 mg/kg intravenously Days 1-3, 8-10, 15-17
[19] = Compound 1 60 mg/kg once daily Day 1-21, drug 25 mg/kg intravenously Days 1-3, 8-10, 15-17

## CC(=O)O[C@@]12CO[C@@H]1C[C@H](O)[C@@]1(C)C(=O)[C@H](O)C3=C(C)[C@@H](OC(=O)[C@H](O)[C@@H](NC(=O)OC(C)(C)C)c4ccccc4)C[C@@](O)([C@@H](OC(=O)c4ccccc4)[C@H]21)C3(C)C [Docetaxel]
[1]
  Call, anti-proliferative effect of combination with Compound 1, SW620: Synergy (0 to 0.7)
[2]
  Call, anti-proliferative effect of combination with Compound 1, COLO205: Additivity (0.7 to 1.3)
[3]
  Call, anti-proliferative effect of combination with Compound 1, HCT116: Additivity (0.7 to 1.3)
[4]
  Result (combination with Compound 1, tumor growth): Additive
[5]; PHTX-79Es (135 mm^3) FIG. 5A, Compound 1 40 mg/kg once daily Day 1-21, drug 10 mg/kg intravenously once weekly Days 1,8,15
  Result (combination with Compound 1, tumor growth): Synergistic
[5]; PHTX-79Es (135 mm^3) FIG. 5A, Compound 1 60 mg/kg once daily Day 1-21, drug 10 mg/kg intravenously once weekly Days 1,8,15
  Result (combination with Compound 1, tumor growth): additive
[5]; FIG. 5A
  antitumor activity: strong antitumor activity compared to either single treatment alone
[6]; PHTXM-35Es (150 mm^3) FIG. 4B, Compound 1 40 mg/kg once daily Day 1-21, drug 10 mg/kg intravenously once weekly Days 1,8,15
  Result (combination with Compound 1, tumor growth): Synergistic
[6]; PHTXM-35Es (150 mm^3) FIG. 4B, Compound 1 60 mg/kg once daily Day 1-21, drug 10 mg/kg intravenously once weekly Days 1,8,15
  Result (combination with Compound 1, tumor growth): Additive
[6]; PHTXM-35Es (190 mm^3), Compound 1 40 mg/kg once daily Day 1-21, drug 10 mg/kg intravenously once weekly Days 1,8,15
  Result (combination with Compound 1, tumor growth): Synergistic
[6]; PHTXM-35Es (190 mm^3), Compound 1 60 mg/kg once daily Day 1-21, drug 10 mg/kg intravenously once weekly Days 1,8,15
  Result (combination with Compound 1, tumor growth): Synergistic
[6]; combined with Compound 1, PHTXM-35Es human primary esophagus cancer xenografts, FIG. 4B
  antitumor activity: strong antitumor activity compared to either single treatment alone
[7]; PHTXM-90Es (220 mm^3), Compound 1 40 mg/kg once daily Day 1-21, drug 10 mg/kg intravenously once weekly Days 1,8,15
  Result (combination with Compound 1, tumor growth): Additive
[7]; PHTXM-90Es (220 mm^3), Compound 1 60 mg/kg once daily Day 1-21, drug 10 mg/kg intravenously once weekly Days 1,8,15
  Result (combination with Compound 1, tumor growth): Additive
[8]
  Call, anti-proliferative effect of combination with Compound 1, A549: Subadditivity (1.3 to 2)
[9]
  Call, anti-proliferative effect of combination with Compound 1, H460: Additivity (0.7 to 1.3)

## O=c1[nH]cc(F)c(=O)[nH]1 [Fluorouracil]
[10]
  In vitro combination effect with Compound 1, Pancreas MIA-PACA-2: Additive
[11]
  In vitro combination effect with Compound 1, Lung H-1650: Additive
[12]
  In vitro combination effect with Compound 1, Lung CALU6: Synergy
[13]
  In vitro combination effect with Compound 1, Ovary SKOV3: Additive
[14]; [16]
  Result (combination with Compound 1, tumor growth): Additive
[14]; [17]
  Result (combination with Compound 1, tumor growth): Additive
[14]; [18]
  Result (combination with Compound 1, tumor growth): Additive
[14]; [19]
  Result (combination with Compound 1, tumor growth): subadditive
[15]; [16]
  Result (combination with Compound 1, tumor growth): Additive
[15]; [17]
  Result (combination with Compound 1, tumor growth): Additive
[15]; [18]
  Result (combination with Compound 1, tumor growth): Additive
[15]; [19]
  Result (combination with Compound 1, tumor growth): subadditive
[5]; PHTXM-79Es (160 mm^3), Compound 1 60 mg/kg once daily Day 1-21, drug 25 mg/kg intravenously Days 1-3, 8-10, 15-17
  Result (combination with Compound 1, tumor growth): Synergistic
[5]; FIG. 5B
  antitumor activity: strong antitumor activity compared to either single treatment alone
[6]; PHTXM-35Es (240 mm^3), Compound 1 60 mg/kg once daily Day 1-21, drug 25 mg/kg intravenously Days 1-3, 8-10, 15-17
  Result (combination with Compound 1, tumor growth): Additive
[7]; PHTXM-90Es (185 mm^3), Compound 1 60 mg/kg once daily Day 1-21, drug 25 mg/kg intravenously Days 1-3, 8-10, 15-17
  Result (combination with Compound 1, tumor growth): Additive
